Values quoted from earlier work, collected in patent US8697043B1, “Odor suppression of volatile organic analgesic compounds and method of use” (Chattem, Inc., priority 2013, dated 2014).

Assays:
[1] = at 25° C.

Vapor pressure [1]	Compound	Solubility in water
86.7 kPa	CC12CCC(CC1=O)C2(C)C (centres unmarked) [camphor]	neither menthol nor camphor are significantly soluble in water
8.5 kPa	CC1CCC(C(C)C)C(O)C1 (centres unmarked) [Menthol]	neither menthol nor camphor are significantly soluble in water
5.9 kPa	CCO [ethanol]	
